{"source": "patent US20080033026A1", "about": "“Antimicrobial compositions, methods and systems” (priority 2006, published 2008)", "assay_type_in_all_cases": "cell-based", "key": {"[1]": {"tested_on": "Listeria monocytogenes (ATCC 19111)", "experiment": "Preservative effectiveness on food pathogens (US Pharmacopoeia 23)", "description": "(§1) The effectiveness of 9-decenoic acid on food pathogens was determined using the protocol on preservative effectiveness found in the US Pharmacopoeia 23, 1995.\n(§2) Stock cultures of the Listeria monocytogenes (ATCC 1911-1), Salmonella enteritidis (ATCC 13076) and Campylobacter jejuni (ATCC 29428) were transferred for at least three consecutives days on Trypticase Soy Agar (TSA) and incubated at 30-35° C. for 18-24 hours. On the day of the test, the cells were washed from the agar surface with sterile saline containing 0.05% w/v Polysorbate 80 (SS+) and the suspension was centrifuged at 2000 rpm for 15 minutes and resuspended in SS+. The suspension was diluted to approximately 10^8 CFU/ml.\n(§3) The 9-decenoic acid was diluted in the same manner as previously described to achieve concentrations of 0.25%, 0.125%, 0.0625%, 0.03%, 0.015%, 0.0078% and 0.0039%. The samples were dispensed in 20 ml aliquots in sterile test tubes. For each concentration tested, a 0.1 ml aliquot of each inoculum was added to a final concentration of 10^5 to 10^6 CFU/ml. The tubes were incubated at room temperature and sampled on days 0, 1, 2, 4, 7, 14, 21 and 28.\n(§4) At each sample point, 1.0 ml aliquots were withdrawn, serially diluted and plated in triplicate on TSA. The plates were incubated at 30-35° C. for 2-4 days. The colonies were counted and the average CFU/ml was calculated. Controls for purity, viability and sterility were performed as described previously.\n(§5) According to the US Pharmacopoeia, a test compound is an effective preservative if the concentrations of viable bacteria remain at or below the initial concentrations during the first fourteen days and after 28 days.\n(§6) Additionally, test organisms in Tables 9-11 were exposed to the 9-decenoic acid for several minutes before analysis at Day 0. As shown in the Tables 9-11, significant biocidal activity was observed even within this short time period for the test organisms, illustrating the effectiveness of 9-decenoic acid as a biocidal agent."}, "[2]": {"tested_on": "Salmonella enteritidis (ATCC 13076)", "experiment": "Preservative effectiveness on food pathogens (US Pharmacopoeia 23)", "description": "as §1, §2, §3, §4, §5, §6"}, "[3]": {"tested_on": "Aspergillus flavus (ATCC 5917)", "experiment": "MIC on Potato Dextrose Agar", "details": "PDA agar, 25-30° C.", "description": "(§7) The efficacy of antimicrobial compositions in accordance with aspects of the invention against the following organisms was determined as follows. The following organisms were incubated in the presence of varying concentrations of 9-decenoic acid (9-DA) on an agar surface: Aspergillus parasiticus (ATCC 56857), Trichoderma virens (ATCC 9645), Aspergillus flavus (ATCC 96045), Cladosporium cladosporiodes (ATCC 16022), Aspergillus flavus (ATCC 5917), Aspergillus oryzae (ATCC 10124), Aspergillus parasiticus (ATCC 13539), Ulocladium atrum (ATCC 52426), Candida albicans (ATCC 11651), Aspergillus niger (ATCC 11414).\n(§8) Fungal spores were hydrated in 0.1% Tween 80 and then plated onto Potato Dextrose Agar (PDA) (Difco # 213400; Becton, Dickinson and Company, Sparks, Md.) and incubated at 25-30° C. for six (6) days. The spores were washed from the surface with 5 ml of 0.1% Tween 80 and enumerated.\n(§9) PDA plates were prepared according to the manufacturer's instructions through sterilization. The agar was tempered to approximately 50° C. and filter sterilized. Antimicrobial compositions containing 9-DA were added by percent weight to molten autoclaved PDA media, with consideration of specific gravity (0.915 g/mL for 9-DA) and purity (98% for 9-DA). The agar was thoroughly mixed and poured into sterile petri plates and allowed to solidify.\n(§10) The agar plates were inoculated with the spore solution to achieve 10^2 spores/plate. The plates were incubated at 25-30° C. in Ziploc bags with a wet paper towel to keep the moisture level high. The plates were examined for growth at 1, 2, 3, 4, 8, 11, 15, 17, 23, 29 and 31 days. The percent coverage of growth on the agar surface was recorded at each sample point."}, "[4]": {"tested_on": "Aspergillus flavus (ATCC 96045)", "experiment": "MIC on Potato Dextrose Agar", "details": "PDA agar, 25-30° C.", "description": "as §7, §8, §9, §10"}, "[5]": {"tested_on": "Aspergillus niger (ATCC 11414)", "experiment": "MIC on Potato Dextrose Agar", "details": "PDA agar, 25-30° C.", "description": "as §7, §8, §9, §10"}, "[6]": {"tested_on": "Aspergillus parasiticus (ATCC 56857)", "experiment": "MIC on Potato Dextrose Agar", "details": "PDA agar, 25-30° C.", "description": "as §7, §8, §9, §10"}, "[7]": {"tested_on": "Candida albicans (ATCC 11651)", "experiment": "MIC on Potato Dextrose Agar", "details": "PDA agar, 25-30° C.", "description": "as §7, §8, §9, §10"}, "[8]": {"tested_on": "Cladosporium cladosporiodes (ATCC 16022)", "experiment": "MIC on Potato Dextrose Agar", "details": "PDA agar, 25-30° C.", "description": "as §7, §8, §9, §10"}, "[9]": {"tested_on": "Trichoderma virens (ATCC 9645)", "experiment": "MIC on Potato Dextrose Agar", "details": "PDA agar, 25-30° C.", "description": "as §7, §8, §9, §10"}, "[10]": {"tested_on": "Ulocladium atrum (ATCC 52426)", "experiment": "MIC on Potato Dextrose Agar", "details": "PDA agar, 25-30° C.", "description": "as §7, §8, §9, §10"}, "[11]": {"details": "0.0078% 9-decenoic acid, exposure day 0"}, "[12]": {"details": "0.0078% 9-decenoic acid, exposure day 1"}, "[13]": {"details": "0.0078% 9-decenoic acid, exposure day 2"}, "[14]": {"details": "0.0078% 9-decenoic acid, exposure day 4"}, "[15]": {"details": "0.0078% 9-decenoic acid, exposure day 7"}, "[16]": {"details": "0.0078% 9-decenoic acid, exposure day 14"}, "[17]": {"details": "0.0078% 9-decenoic acid, exposure day 21"}, "[18]": {"details": "0.0078% 9-decenoic acid, exposure day 28"}, "[19]": {"details": "0.015% 9-decenoic acid, exposure day 0"}, "[20]": {"details": "0.015% 9-decenoic acid, exposure day 1"}, "[21]": {"details": "0.015% 9-decenoic acid, exposure day 2"}, "[22]": {"details": "0.015% 9-decenoic acid, exposure day 4"}, "[23]": {"details": "0.015% 9-decenoic acid, exposure day 7"}, "[24]": {"details": "0.015% 9-decenoic acid, exposure day 14"}, "[25]": {"details": "0.015% 9-decenoic acid, exposure day 21"}, "[26]": {"details": "0.015% 9-decenoic acid, exposure day 28"}, "[27]": {"details": "0.03% 9-decenoic acid, exposure day 0"}, "[28]": {"details": "0.03% 9-decenoic acid, exposure day 1"}, "[29]": {"details": "0.03% 9-decenoic acid, exposure day 2"}, "[30]": {"details": "0.03% 9-decenoic acid, exposure day 4"}, "[31]": {"details": "0.03% 9-decenoic acid, exposure day 7"}, "[32]": {"details": "0.03% 9-decenoic acid, exposure day 14"}, "[33]": {"details": "0.03% 9-decenoic acid, exposure day 21"}, "[34]": {"details": "0.03% 9-decenoic acid, exposure day 28"}, "[35]": {"details": "US Pharmacopoeia definition, 28 days"}}, "data": [{"compound": "C=CCCCCCCCC(=O)O", "note": "[9-decenoic acid]", "values": [{"measurement": "Log reduction", "setting": "[1]; [11]", "value": 1.0, "unit": "log"}, {"measurement": "Log reduction", "setting": "[1]; [12]", "value": 5.1, "unit": "log"}, {"measurement": "Log reduction", "setting": "[1]; [13]", "value": 5.1, "unit": "log"}, {"measurement": "Log reduction", "setting": "[1]; [14]", "value": 5.1, "unit": "log"}, {"measurement": "Log reduction", "setting": "[1]; [15]", "value": 5.1, "unit": "log"}, {"measurement": "Log reduction", "setting": "[1]; [16]", "value": 5.1, "unit": "log"}, {"measurement": "Log reduction", "setting": "[1]; [17]", "value": 5.1, "unit": "log"}, {"measurement": "Log reduction", "setting": "[1]; [18]", "value": 5.1, "unit": "log"}, {"measurement": "Log reduction", "setting": "[1]; [19]", "value": 5.1, "unit": "log"}, {"measurement": "Log reduction", "setting": "[1]; [20]", "value": 5.1, "unit": "log"}, {"measurement": "Log reduction", "setting": "[1]; [21]", "value": 5.1, "unit": "log"}, {"measurement": "Log reduction", "setting": "[1]; [22]", "value": 5.1, "unit": "log"}, {"measurement": "Log reduction", "setting": "[1]; [23]", "value": 5.1, "unit": "log"}, {"measurement": "Log reduction", "setting": "[1]; [24]", "value": 5.1, "unit": "log"}, {"measurement": "Log reduction", "setting": "[1]; [25]", "value": 5.1, "unit": "log"}, {"measurement": "Log reduction", "setting": "[1]; [26]", "value": 5.1, "unit": "log"}, {"measurement": "Log reduction", "setting": "[1]; [27]", "value": 5.1, "unit": "log"}, {"measurement": "Log reduction", "setting": "[1]; [28]", "value": 5.1, "unit": "log"}, {"measurement": "Log reduction", "setting": "[1]; [29]", "value": 5.1, "unit": "log"}, {"measurement": "Log reduction", "setting": "[1]; [30]", "value": 5.1, "unit": "log"}, {"measurement": "Log reduction", "setting": "[1]; [31]", "value": 5.1, "unit": "log"}, {"measurement": "Log reduction", "setting": "[1]; [32]", "value": 5.1, "unit": "log"}, {"measurement": "Log reduction", "setting": "[1]; [33]", "value": 5.1, "unit": "log"}, {"measurement": "Log reduction", "setting": "[1]; [34]", "value": 5.1, "unit": "log"}, {"measurement": "Concentration at which effective preservative", "setting": "[1]; [35]", "value": "≤ 0.0078", "unit": "%"}, {"measurement": "Exposure time at which bactericidal", "setting": "[1]; at 0.0078%", "value": 1, "unit": "days"}, {"measurement": "Exposure time at which bactericidal", "setting": "[1]; at 150 ppm", "value": 0, "unit": "days"}, {"measurement": "Log reduction", "setting": "[2]; [11]", "value": 0.53, "unit": "log"}, {"measurement": "Log reduction", "setting": "[2]; [12]", "value": 3.2, "unit": "log"}, {"measurement": "Log reduction", "setting": "[2]; [13]", "value": 4.1, "unit": "log"}, {"measurement": "Log reduction", "setting": "[2]; [14]", "value": 4.0, "unit": "log"}, {"measurement": "Log reduction", "setting": "[2]; [15]", "value": 5.1, "unit": "log"}, {"measurement": "Log reduction", "setting": "[2]; [16]", "value": 5.1, "unit": "log"}, {"measurement": "Log reduction", "setting": "[2]; [17]", "value": 5.1, "unit": "log"}, {"measurement": "Log reduction", "setting": "[2]; [18]", "value": 5.1, "unit": "log"}, {"measurement": "Log reduction", "setting": "[2]; [19]", "value": 5.1, "unit": "log"}, {"measurement": "Log reduction", "setting": "[2]; [20]", "value": 5.1, "unit": "log"}, {"measurement": "Log reduction", "setting": "[2]; [21]", "value": 5.1, "unit": "log"}, {"measurement": "Log reduction", "setting": "[2]; [22]", "value": 5.1, "unit": "log"}, {"measurement": "Log reduction", "setting": "[2]; [23]", "value": 5.1, "unit": "log"}, {"measurement": "Log reduction", "setting": "[2]; [24]", "value": 5.1, "unit": "log"}, {"measurement": "Log reduction", "setting": "[2]; [25]", "value": 5.1, "unit": "log"}, {"measurement": "Log reduction", "setting": "[2]; [26]", "value": 5.1, "unit": "log"}, {"measurement": "Log reduction", "setting": "[2]; [27]", "value": 5.1, "unit": "log"}, {"measurement": "Log reduction", "setting": "[2]; [28]", "value": 5.1, "unit": "log"}, {"measurement": "Log reduction", "setting": "[2]; [29]", "value": 5.1, "unit": "log"}, {"measurement": "Log reduction", "setting": "[2]; [30]", "value": 5.1, "unit": "log"}, {"measurement": "Log reduction", "setting": "[2]; [31]", "value": 5.1, "unit": "log"}, {"measurement": "Log reduction", "setting": "[2]; [32]", "value": 5.1, "unit": "log"}, {"measurement": "Log reduction", "setting": "[2]; [33]", "value": 5.1, "unit": "log"}, {"measurement": "Log reduction", "setting": "[2]; [34]", "value": 5.1, "unit": "log"}, {"measurement": "Concentration at which effective preservative", "setting": "[2]; [35]", "value": "≤ 0.0078", "unit": "%"}, {"measurement": "Exposure time at which bactericidal", "setting": "[2]; at 0.0078%", "value": 7, "unit": "days"}, {"measurement": "Exposure time at which bactericidal", "setting": "[2]; at 0.015%", "value": 0, "unit": "days"}, {"measurement": "MIC", "setting": "[3]", "value": 0.05, "unit": "%"}, {"measurement": "MIC", "setting": "[4]", "value": 0.05, "unit": "%"}, {"measurement": "MIC", "setting": "[5]", "value": 0.05, "unit": "%"}, {"measurement": "MIC", "setting": "[6]", "value": 0.05, "unit": "%"}, {"measurement": "MIC", "setting": "[7]", "value": 0.025, "unit": "%"}, {"measurement": "MIC", "setting": "[8]", "value": 0.025, "unit": "%"}, {"measurement": "MIC", "setting": "[9]", "value": 0.05, "unit": "%"}, {"measurement": "MIC", "setting": "[10]", "value": 0.025, "unit": "%"}]}]}
